Drawing on patent US5807855A, “1-piperazino-1,2-dihydroindene derivatives” (priority 1992, dated 1998), this text covers IC50 for 30 compounds.

Like-named read-outs stand apart in the source and are kept apart here.

The target in one assay is T1, 5-HT2 receptors (Rattus norvegicus, UniProt P14842).
T1 construct: 5-HT2 receptors in membranes from rat cortex; from tissue; host or cells: membranes from rat cortex
Description: Inhibition of 3H-ketanserin binding to 5-HT2 receptors in membranes from rat cortex. The following applies: Receptor Binding, IC50, 5-HT2 3H-Ket. The procedure:
Receptor binding studies.
5-HT2 receptors. Inhibition of ^3 H-ketanserin binding to 5-HT2 receptors in membranes from rat cortex was determined as described by Hyttel, J. Acta. Pharmacol. Toxicol.

A further assay deals with T2, DA D2 receptors (Rattus norvegicus, UniProt P61169).
T2 construct: DA D2 receptors in rat striatal membranes; from tissue; host or cells: rat striatal membranes
Description: Inhibition of 3H-spiperone binding to DA D2 receptors in rat striatal membranes. As to conditions: rat striatal membranes, 3H-spiperone; read-out: Receptor Binding; IC50, D2 3H-Spi.

The target of a further assay is DA D1 receptor (Rattus norvegicus, UniProt P18901). Description: biochemical. Format: binding. As to conditions: IC50, D1 3H-SCH.
Where [1] appears, read: rat striatal membranes, 3H-SCH 23390, read-out: Receptor Binding.

T1 sequence (P14842 whole entry): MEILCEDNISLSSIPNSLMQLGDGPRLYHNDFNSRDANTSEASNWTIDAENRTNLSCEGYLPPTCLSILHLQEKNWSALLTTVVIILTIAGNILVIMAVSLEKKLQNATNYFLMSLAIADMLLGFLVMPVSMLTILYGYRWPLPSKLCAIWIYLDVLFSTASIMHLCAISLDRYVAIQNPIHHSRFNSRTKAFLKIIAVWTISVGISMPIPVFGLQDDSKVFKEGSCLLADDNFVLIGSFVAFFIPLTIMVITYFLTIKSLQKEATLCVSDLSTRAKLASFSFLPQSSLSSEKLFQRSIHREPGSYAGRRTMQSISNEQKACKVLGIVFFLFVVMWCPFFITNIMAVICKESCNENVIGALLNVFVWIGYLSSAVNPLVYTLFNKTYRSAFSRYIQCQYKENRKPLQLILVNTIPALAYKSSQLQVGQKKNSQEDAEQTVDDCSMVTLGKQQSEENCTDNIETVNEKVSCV
T2 sequence (P61169 whole entry): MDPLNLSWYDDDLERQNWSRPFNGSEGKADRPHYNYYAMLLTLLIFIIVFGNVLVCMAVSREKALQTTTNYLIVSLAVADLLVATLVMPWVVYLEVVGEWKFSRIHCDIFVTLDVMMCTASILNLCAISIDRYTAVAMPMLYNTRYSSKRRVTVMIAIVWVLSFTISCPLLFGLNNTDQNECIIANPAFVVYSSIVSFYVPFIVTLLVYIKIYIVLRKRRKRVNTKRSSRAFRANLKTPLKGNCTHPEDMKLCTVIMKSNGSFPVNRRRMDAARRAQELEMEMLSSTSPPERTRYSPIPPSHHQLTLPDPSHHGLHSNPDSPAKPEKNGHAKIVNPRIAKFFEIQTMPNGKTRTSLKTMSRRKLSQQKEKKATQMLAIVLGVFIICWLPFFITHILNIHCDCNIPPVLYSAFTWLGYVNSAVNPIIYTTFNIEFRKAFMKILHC
Sequence of DA D1 receptor (P18901 whole entry): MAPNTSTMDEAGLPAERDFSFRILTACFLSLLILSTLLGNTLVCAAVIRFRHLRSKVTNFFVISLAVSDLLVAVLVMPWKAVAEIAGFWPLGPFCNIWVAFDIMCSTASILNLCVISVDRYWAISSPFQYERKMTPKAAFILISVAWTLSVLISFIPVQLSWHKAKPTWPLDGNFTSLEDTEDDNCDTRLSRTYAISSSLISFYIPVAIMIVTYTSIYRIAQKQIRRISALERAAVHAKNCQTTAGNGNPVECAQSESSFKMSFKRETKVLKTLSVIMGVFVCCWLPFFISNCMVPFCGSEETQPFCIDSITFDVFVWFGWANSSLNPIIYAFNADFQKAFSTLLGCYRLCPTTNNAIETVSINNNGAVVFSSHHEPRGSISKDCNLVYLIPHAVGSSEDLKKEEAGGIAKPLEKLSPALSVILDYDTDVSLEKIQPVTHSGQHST

For `CC1(C)CN([C@@H]2C[C@@H](c3ccc(F)cc3)c3ccc(Cl)cc32)CCN1` (racemic) [Compound 1, (±)-Trans-4-[6-chloro-3-(4-fluorophenyl)-2,3-dihydro-1H-inden-1-yl]-2,2-dimethylpiperazine], the IC50 on 5-HT2 receptors is 3.2 nM; on DA D2 receptors, 7.3 nM; at DA D1 receptor (setting [1]), 2.1 nM.

As to `CN1CCN([C@@H]2C[C@@H](c3ccccc3)c3ccccc32)CC1(C)C` (racemic) [Compound 3, (±)-Trans-4-[3-phenyl-2,3-dihydro-1H-inden-1-yl]-1,2,2-trimethyl-piperazine], the figures for the IC50 on 5-HT2 receptors, on DA D2 receptors and at DA D1 receptor (Receptor Binding) were 21 nM, 140 nM and 13 nM, respectively.

For `Cc1ccc2c(c1)[C@H](N1CCNC(C)(C)C1)C[C@H]2c1ccc(F)cc1` (racemic) [Compound 4, (±)-Trans-2,2-dimethyl-4-[6-methyl-3-(4-fluorophenyl)-2,3-dihydro-1H-inden-1-yl]piperazine], the IC50 came to 1.5 nM at 5-HT2 receptors, 5.6 nM at DA D2 receptors and 5.9 nM at DA D1 receptor (setting [1]).

Regarding `Cc1ccc2c(c1)[C@H](N1CCN(C)C(C)(C)C1)C[C@H]2c1ccc(F)cc1` (racemic) [Compound 5, (±)-Trans-4-[6-methyl-3-(4-fluorophenyl)-2,3-dihydro-1H-inden-1-yl]-1,2,2-trimethylpiperazine], the results for the IC50 at 5-HT2 receptors, on DA D2 receptors and on DA D1 receptor (Receptor Binding) were 3.4 nM, 4.8 nM and 2.1 nM, respectively.

For the compound `CC1(C)CN([C@@H]2C[C@@H](c3ccc(F)cc3)c3ccc(C(F)(F)F)cc32)CCN1` (racemic) [Compound 6, (±)-Trans-2,2-dimethyl-4-[6-trifluoromethyl-3-(4-fluorophenyl)-2,3-dihydro-1H-inden-1-yl]piperazine], the IC50 amounted to 5.2 nM at DA D2 receptors and 2.8 nM at DA D1 receptor (setting [1]).

On to `CN1CCN([C@@H]2C[C@@H](c3ccc(F)cc3)c3ccc(C(F)(F)F)cc32)CC1(C)C` (racemic) [Compound 7, (±)-Trans-4-[6-trifluoromethyl-3-(4-fluorophenyl)-2,3-dihydro-1H-inden-1-yl]-1,2,2-trimethylpiperazine], for which the IC50 at 5-HT2 receptors turned out to be 4.5 nM; on DA D2 receptors, 5.7 nM; at DA D1 receptor (Receptor Binding), 1.5 nM.

On to `CN1CCN([C@@H]2C[C@@H](c3ccc(F)cc3)c3c(Cl)cccc32)CC1(C)C` (racemic) [Compound 15, (±)-Trans-4-[4-chloro-3-(4-fluorophenyl)-2,3-dihydro-1H-inden-1-yl]-1,2,2-trimethylpiperazine], for which the IC50 was 29 nM at 5-HT2 receptors and 45 nM on DA D1 receptor (setting [1]).

Turning to `CC1CN([C@@H]2C[C@@H](c3ccc(F)cc3)c3ccc(Cl)cc32)CCN1C` (mixture of isomers) [Compound 18, (±)-Trans-4-[6-chloro-3-(4-fluorophenyl)-2,3-dihydro-1H-inden-1-yl]-1,2-dimethylpiperazine], the IC50 turned out to be 12 nM on DA D2 receptors and 2.4 nM at DA D1 receptor (setting [1]).

Turning to `CCC1(CC)CN([C@@H]2C[C@@H](c3ccc(F)cc3)c3ccc(Cl)cc32)CCN1C` (racemic) [Compound 24, (±)-Trans-4-[6-chloro-3-(4-fluorophenyl)-2,3-dihydro-1H-inden-1-yl]-2,2-diethyl-1-methylpiperazine], the figures for the IC50 at DA D2 receptors and on DA D1 receptor (setting [1]) were 38 nM and 8.8 nM, respectively.

In the case of `C[C@@H]1CN([C@@H]2C[C@@H](c3ccc(F)cc3)c3ccc(C(F)(F)F)cc32)C[C@H](C)N1` (racemic) [Compound 27, (±)-Trans-4-[6-trifluoromethyl-3-(4-fluorophenyl)-2,3-dihydro-1H-inden-1-yl]-cis-2,6-dimethylpiperazine], the IC50 at DA D2 receptors was 33 nM; at DA D1 receptor (setting [1]), 50 nM.

As for `CN1CCN([C@@H]2C[C@@H](c3ccc(F)cc3)c3ccc(Cl)cc32)CC12CCC2` (racemic) [Compound 28, (±)-Trans-8-[6-chloro-3-(4-fluorophenyl)-2,3-dihydro-1H-inden-1-yl]-5-methyl-5,8-diazaspiro[3.5]nonane], the IC50 on 5-HT2 receptors was determined as 3 nM; at DA D2 receptors it was 6.3 nM.

`CN1CCN([C@@H]2C[C@@H](c3ccsc3)c3ccc(Cl)cc32)CC12CCCC2` (racemic) [Compound 30, (±)-Trans-9-[6-chloro-3-(3-thienyl)-2,3-dihydro-1H-inden-1-yl]-6-methyl-6,9-diazaspiro[4.5]decane]: the IC50 at DA D2 receptors is 5 nM; at DA D1 receptor (setting [1]), 1.8 nM.

On to `CN1CCN([C@@H]2C[C@@H](c3ccc(F)cc3)c3ccc(Cl)cc32)CC12CCCCC2` (racemic) [Compound 32, (±)-Trans-4-[6-chloro-3-(4-fluorophenyl)-2,3-dihydro-1H-inden-1-yl]-1-methyl-1,4-diazaspiro[5.5]undecan], for which the IC50 amounted to 24 nM at DA D2 receptors and 6 nM on DA D1 receptor (setting [1]).

As for `Fc1ccc([C@@H]2C[C@@H](N3CCN4CCCCC4C3)c3cc(Cl)ccc32)cc1` (mixture of isomers) [Compound 34, (±)-Trans-2-[6-chloro-3-(4-fluorophenyl)-2,3-dihydro-1H-inden-1-yl]-octahydropyrido[1,2-a]pyrazine], the IC50 stood at 11 nM on DA D2 receptors and 2.1 nM at DA D1 receptor (setting [1]).

With `CC(C)N1CCN([C@@H]2C[C@@H](c3ccc(F)cc3)c3ccc(Cl)cc32)CC1C` (mixture of isomers) [Compound 41, (±)-Trans-4-[6-chloro-3-(4-fluorophenyl)-2,3-dihydro-1H-inden-1-yl]-2-methyl-1-(2-propyl)piperazine], the values for the IC50 at DA D2 receptors and on DA D1 receptor (setting [1]) were 17 nM and 1.6 nM, respectively.

Regarding `CC(C)N1CCN([C@@H]2C[C@@H](c3ccc(F)cc3)c3ccc(Cl)cc32)CC12CCCC2` (racemic) [Compound 42, (±)-Trans-9-[6-chloro-3-(4-fluorophenyl)-2,3-dihydro-1H-inden-1-yl]-6-(2-propyl)-6,9-diazaspiro[4.5]decane], the values for the IC50 at DA D2 receptors and on DA D1 receptor (setting [1]) were 8.8 nM and 1.3 nM, respectively.

For `CC1(C)CN([C@@H]2C[C@@H](c3ccc(F)cc3)c3ccc(Cl)cc32)CCN1CCO` (racemic) [Compound 43, (±)-Trans-4-[6-chloro-3-(4-fluorophenyl)-2,3-dihydro-1H-inden-1-yl]-2,2-dimethyl-1-piperazineethanol], the IC50 at DA D2 receptors was found to be 3 nM; on DA D1 receptor (setting [1]), 1 nM.

With `CC1(C)CN([C@@H]2C[C@@H](c3ccsc3)c3ccc(Cl)cc32)CCN1CCO` (racemic) [Compound 45, (±)-Trans-4-[6-chloro-3-(3-thienyl)-2,3-dihydro-1H-inden-1-yl]-2,2-dimethyl-1-piperazineethanol], the figures for the IC50 on DA D2 receptors and on DA D1 receptor (setting [1]) were 2.8 nM and 0.82 nM, respectively.

As for `CC(C)C1CN([C@@H]2C[C@@H](c3ccc(F)cc3)c3ccc(Cl)cc32)CCN1C` (relative stereo) [Compound 21, Trans-4-[6-chloro-3-(4-fluorophenyl)-2,3-dihydro-1H-inden-1-yl]-1-methyl-2-(2-propyl)piperazine], the IC50 is 36 nM at DA D2 receptors and 3.2 nM on DA D1 receptor (setting [1]).

For `CC(C)C1CN([C@@H]2C[C@@H](c3ccc(F)cc3)c3ccc(Cl)cc32)CCN1C` (relative stereo) [Compound 22, Trans-4-[6-chloro-3-(4-fluorophenyl)-2,3-dihydro-1H-inden-1-yl]-1-methyl-2-(2-propyl)piperazine], the IC50 turned out to be 400 nM on DA D2 receptors and 43 nM on DA D1 receptor (setting [1]).

`CC1CN([C@@H]2C[C@@H](c3ccc(F)cc3)c3ccc(Cl)cc32)C(C)CN1C` (relative stereo) [Compound 25, (±)-Trans-4-[6-chloro-3-(4-fluorophenyl)-2,3-dihydro-1H-inden-1-yl]-(1-trans-2,5-trimethyl)piperazine]: the IC50 at 5-HT2 receptors is 3.4 nM.

In turn, `C[C@@H]1CN([C@@H]2C[C@@H](c3ccc(F)cc3)c3ccc(Cl)cc32)C[C@H](C)N1C` (relative stereo) [Compound 26, (±)-Trans-4-[6-chloro-3-(4-fluorophenyl)-2,3-dihydro-1H-inden-1-yl]-(1-cis-2,6-trimethyl)piperazine] registered an IC50 on 5-HT2 receptors of 3.3 nM.

`CN1CCN([C@@H]2C[C@@H](c3ccc(F)cc3)c3ccc(Cl)cc32)CC12CCCC2` (relative stereo) [Compound 29] came in with an IC50 on 5-HT2 receptors of 5.2 nM.

As to `CC(C)N1CCN([C@@H]2C[C@@H](c3ccc(F)cc3)c3ccc(Cl)cc32)CC1(C)C` (relative stereo) [Compound 40], the IC50 at 5-HT2 receptors turned out to be 4.1 nM.

In the case of `OCCN1CCN([C@@H]2C[C@@H](c3ccc(F)cc3)c3ccc(Cl)cc32)CC12CCCC2` (relative stereo) [Compound 44], the IC50 on 5-HT2 receptors came to 6 nM.

`CN1CCN([C@@H]2C[C@@H](c3ccc(F)cc3)c3ccc(Cl)cc32)CC12CCCC2` (single isomer, unassigned) [+29, (+)-Trans-9-[6-chloro-3-(4-fluorophenyl)-2,3-dihydro-1H-inden-1-yl]-6-methyl-6,9-diazaspiro[4.5]decane] came in with an IC50 on 5-HT2 receptors of 13 nM.

`CN1CCN([C@@H]2C[C@@H](c3ccc(F)cc3)c3ccc(Cl)cc32)CC12CCCC2` (single isomer, unassigned) [Compound -29]: the IC50 on 5-HT2 receptors was 4 nM.

With `CC(C)N1CCN([C@@H]2C[C@@H](c3ccc(F)cc3)c3ccc(Cl)cc32)CC1(C)C` (single isomer, unassigned) [Compound -40], the IC50 at 5-HT2 receptors stood at 2.5 nM.

For `OCCN1CCN([C@@H]2C[C@@H](c3ccc(F)cc3)c3ccc(Cl)cc32)CC12CCCC2` (single isomer, unassigned) [Compound -44], the IC50 at 5-HT2 receptors stood at 2.5 nM.

On to `OC1CCN2CCN(C3CC(c4ccc(F)cc4)c4ccc(F)cc43)CC2C1` (centres unmarked) [Compound 35, 2-[6-fluoro-3-(4-fluorophenyl)-2,3-dihydro-1H-inden-1-yl]-octahydropyrido[1,2-a]-pyrazine-8-ol], for which the values for the IC50 at DA D2 receptors and at DA D1 receptor (setting [1]) were 1100 nM and 30 nM, respectively.
